{"source": "patent US10100010B1", "about": "“4-methoxy pyrrole derivatives or salts thereof and pharmaceutical composition comprising the same” (Daewoong Pharmaceutical Co., Ltd., priority 2015, dated 2018)", "key": {"[1]": {"test_system": "H. pylori", "experiment": "Antimicrobial activity against H. pylori, MIC by agar dilution method", "type": "cell-based", "conditions": "Helicobacter pylori"}, "[2]": {"target": "T1, proton pump (H+/K+-ATPase) (Sus scrofa, UniProt P19156)", "T1 construct": "Gastric vesicles were prepared from a hog stomach; from tissue; host or cells: hog stomach (gastric vesicles, method of Rabon et al. 1988)", "T1 sequence (P19156 2-1034 limits assumed)": "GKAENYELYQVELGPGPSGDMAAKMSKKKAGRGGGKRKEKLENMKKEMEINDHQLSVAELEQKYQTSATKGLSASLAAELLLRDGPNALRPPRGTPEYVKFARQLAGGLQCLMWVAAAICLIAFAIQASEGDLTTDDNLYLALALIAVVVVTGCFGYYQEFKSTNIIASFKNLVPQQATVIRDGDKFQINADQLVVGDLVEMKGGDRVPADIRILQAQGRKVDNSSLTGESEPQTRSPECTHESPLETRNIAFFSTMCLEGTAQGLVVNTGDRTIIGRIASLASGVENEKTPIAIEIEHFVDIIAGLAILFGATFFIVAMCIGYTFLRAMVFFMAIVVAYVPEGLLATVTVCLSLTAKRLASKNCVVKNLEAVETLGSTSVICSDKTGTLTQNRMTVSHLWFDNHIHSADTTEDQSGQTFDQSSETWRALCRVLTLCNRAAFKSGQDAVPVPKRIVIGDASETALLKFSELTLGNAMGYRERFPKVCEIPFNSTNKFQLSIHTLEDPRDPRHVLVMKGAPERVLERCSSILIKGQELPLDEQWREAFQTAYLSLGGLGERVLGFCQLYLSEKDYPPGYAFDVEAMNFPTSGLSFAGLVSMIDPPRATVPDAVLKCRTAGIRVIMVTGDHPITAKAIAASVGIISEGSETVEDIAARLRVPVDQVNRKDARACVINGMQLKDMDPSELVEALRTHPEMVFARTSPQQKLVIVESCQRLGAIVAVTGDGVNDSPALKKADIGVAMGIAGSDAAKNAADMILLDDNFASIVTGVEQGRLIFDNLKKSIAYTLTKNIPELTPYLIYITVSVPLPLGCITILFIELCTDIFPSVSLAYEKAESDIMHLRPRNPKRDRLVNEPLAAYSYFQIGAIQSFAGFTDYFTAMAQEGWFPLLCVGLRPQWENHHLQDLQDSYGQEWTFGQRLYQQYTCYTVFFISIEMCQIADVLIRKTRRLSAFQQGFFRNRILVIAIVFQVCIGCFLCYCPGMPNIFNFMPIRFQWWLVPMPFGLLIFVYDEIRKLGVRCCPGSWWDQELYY", "T1 sequence (P18434 whole entry partner)": "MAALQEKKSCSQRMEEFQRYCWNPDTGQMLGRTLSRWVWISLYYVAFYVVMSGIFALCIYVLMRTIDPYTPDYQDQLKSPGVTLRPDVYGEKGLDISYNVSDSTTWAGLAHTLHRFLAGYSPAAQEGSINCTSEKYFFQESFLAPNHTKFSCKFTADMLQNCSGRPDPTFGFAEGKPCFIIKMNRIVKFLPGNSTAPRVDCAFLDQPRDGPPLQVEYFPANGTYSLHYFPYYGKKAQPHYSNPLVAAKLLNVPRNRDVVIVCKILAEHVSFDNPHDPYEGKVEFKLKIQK", "experiment": "Inhibitory effects on proton pump (H+/K+-ATPase) activity, gastric vesicles, malachite green Pi detection", "type": "biochemical", "conditions": "hog gastric vesicles, 37° C. 40 minutes, pH 7.4", "procedure": "The inhibitory effects on proton pump (H^+/K^+-ATPase) activity of the compounds prepared in Examples 2, 8 and 22 were measured as follows.\nGastric vesicles were prepared from a hog stomach in accordance with the known method (Edd C. Rabon et al., Preparation of Gastric H^+, K^+-ATPase., Methods in enzymology, vol. 157 Academic Press Inc., (1988), pp. 649-654). The protein contents of gastric vesicles thus prepared were quantitatively measured with Bicinchoninic Acid (BCA) kit (Thermo Co.).\n80 ul of (a predetermined concentration of a test compound, 0.5% DMSO, 2.5 mM MgCl2, 12.5 mM KCl, 1.25 mM EDTA, 60 mM Tris-HCl, pH7.4) was added to each well of 96-well plate. 10 ul of the reaction solution containing gastric vesicles (60 mmol/l, Tris-HCl buffer solution, pH 7.4), and 10 ul of Tris buffer solution containing adenosine triphosphate (10 mM ATP, Tris-HCl buffer solution, pH 7.4) were added to each well and subjected to enzymatic reaction at 37° C. for 40 minutes. […] The amount of monophosphate (Pi) in the reaction solution was measured at 570 nm by using a microplate reader (FLUOstar Omega, BMG Co.). The inhibition rate (%) was measured from the activity value of the control group and the activity value of the test compound at various concentrations, and the concentration (IC50) that inhibits H^+/K^+-ATPase activity by 50% was calculated from each % inhibition value of the compounds using Logistic 4-parameter function of Sigmaplot8.0 program."}}, "note": "pIC50: −log10 of the molar value."}
{"compound": "CNCc1cn(S(=O)(=O)c2cccc(F)c2)c(-c2c(F)cc(F)cc2F)c1OC.Cl", "note": "[Example 22, 1-(1-((3-fluorophenyl)sulfonyl)-4-methoxy-5-(2,4,6-trifluorophenyl)-1H-pyrrol-3-yl)-N-methylmethanamine hydrochloride]", "values": [{"measurement": "MIC", "setting": "[1]; strain 45 (HPKTCC B0004)", "result": 75, "unit": "µg/mL"}, {"measurement": "MIC", "setting": "[1]; strain 51 (HPKTCC B0006)", "result": 75, "unit": "µg/mL"}, {"measurement": "MIC", "setting": "[1]; strain 52 (HPKTCC B0007)", "result": 75, "unit": "µg/mL"}, {"measurement": "MIC", "setting": "[1]; strain 92-33-1 (HPKTCC B0182)", "result": 75, "unit": "µg/mL"}, {"measurement": "MIC", "setting": "[1]; strain 92-82-1 (HPKTCC B0233)", "result": 75, "unit": "µg/mL"}, {"measurement": "MIC", "setting": "[1]; strain 92-157 (HPKTCC B0152)", "result": 75, "unit": "µg/mL"}, {"measurement": "MIC", "setting": "[1]; strain 118 (HPKTCC B0017)", "result": 75, "unit": "µg/mL"}, {"measurement": "MIC", "setting": "[1]; strain 126 (HPKTCC B0020)", "result": 75, "unit": "µg/mL"}, {"measurement": "MIC", "setting": "[1]; strain 127 (HPKTCC B0021)", "result": 75, "unit": "µg/mL"}, {"measurement": "MIC", "setting": "[1]; strain 133 (HPKTCC B0023)", "result": 75, "unit": "µg/mL"}, {"measurement": "MIC", "setting": "[1]; strain 134 (HPKTCC B0024)", "result": 75, "unit": "µg/mL"}, {"measurement": "MIC", "setting": "[1]; strain 138 (HPKTCC B0026)", "result": 75, "unit": "µg/mL"}, {"measurement": "MIC", "setting": "[1]; strain 156 (HPKTCC B0035)", "result": 75, "unit": "µg/mL"}, {"measurement": "MIC", "setting": "[1]; strain 159 (HPKTCC B0037)", "result": 75, "unit": "µg/mL"}, {"measurement": "MIC", "setting": "[1]; strain 164 (HPKTCC B0040)", "result": 75, "unit": "µg/mL"}, {"measurement": "MIC", "setting": "[1]; strain 183 (HPKTCC B0047)", "result": 75, "unit": "µg/mL"}, {"measurement": "MIC", "setting": "[1]; strain 193 (HPKTCC B0051)", "result": 75, "unit": "µg/mL"}, {"measurement": "MIC", "setting": "[1]; strain 198 (HPKTCC B0055)", "result": 75, "unit": "µg/mL"}, {"measurement": "MIC", "setting": "[1]; strain 205 (HPKTCC B0058)", "result": 75, "unit": "µg/mL"}, {"measurement": "MIC", "setting": "[1]; strain 210 (HPKTCC B0061)", "result": 75, "unit": "µg/mL"}, {"measurement": "MIC", "setting": "[1]; strain 221 (HPKTCC B0068)", "result": 75, "unit": "µg/mL"}, {"measurement": "MIC", "setting": "[1]; strain 228 (HPKTCC B0071)", "result": 75, "unit": "µg/mL"}, {"measurement": "MIC", "setting": "[1]; strain 235 (HPKTCC B0074)", "result": 75, "unit": "µg/mL"}, {"measurement": "MIC", "setting": "[1]; strain 236 (HPKTCC B0075)", "result": 75, "unit": "µg/mL"}, {"measurement": "MIC", "setting": "[1]; strain 302 (HPKTCC B0088)", "result": 75, "unit": "µg/mL"}, {"measurement": "MIC", "setting": "[1]; strain 26695 (HPKTCC B0100)", "result": 75, "unit": "µg/mL"}, {"measurement": "MIC", "setting": "[1]; strain 26695 CHGKG (HPKTCC B3412)", "result": 150, "unit": "µg/mL"}, {"measurement": "MIC", "setting": "[1]; strain CH24 (HPKTCC B0508)", "result": 75, "unit": "µg/mL"}, {"measurement": "MIC", "setting": "[1]; strain CH94 (HPKTCC B0582)", "result": 75, "unit": "µg/mL"}, {"measurement": "MIC", "setting": "[1]; strain CH173 (HPKTCC B0494)", "result": 75, "unit": "µg/mL"}, {"measurement": "MIC", "setting": "[1]; strain CH175 (HPKTCC B0496)", "result": 75, "unit": "µg/mL"}, {"measurement": "MIC", "setting": "[1]; strain CH189 (HPKTCC B0498)", "result": 75, "unit": "µg/mL"}, {"measurement": "MIC", "setting": "[1]; strain CH192 (HPKTCC B0500)", "result": 75, "unit": "µg/mL"}, {"measurement": "MIC", "setting": "[1]; strain CH272 (HPKTCC B0516)", "result": 75, "unit": "µg/mL"}, {"measurement": "MIC", "setting": "[1]; strain CH369 (HPKTCC B0522)", "result": 75, "unit": "µg/mL"}, {"measurement": "MIC", "setting": "[1]; strain CH381 (HPKTCC B0524)", "result": 75, "unit": "µg/mL"}, {"measurement": "MIC", "setting": "[1]; strain CH498 (HPKTCC B0536)", "result": 75, "unit": "µg/mL"}, {"measurement": "MIC", "setting": "[1]; strain CH502 (HPKTCC B0537)", "result": 75, "unit": "µg/mL"}, {"measurement": "MIC", "setting": "[1]; strain CH523 (HPKTCC B0541)", "result": 75, "unit": "µg/mL"}, {"measurement": "MIC", "setting": "[1]; strain CH541 (HPKTCC B0548)", "result": 75, "unit": "µg/mL"}, {"measurement": "MIC", "setting": "[1]; strain CH588 (HPKTCC B0556)", "result": 75, "unit": "µg/mL"}, {"measurement": "MIC", "setting": "[1]; strain CH609 (HPKTCC B0558)", "result": 75, "unit": "µg/mL"}, {"measurement": "MIC", "setting": "[1]; strain CH612 (HPKTCC B0559)", "result": 75, "unit": "µg/mL"}, {"measurement": "MIC", "setting": "[1]; strain CH631 (HPKTCC B0560)", "result": 75, "unit": "µg/mL"}, {"measurement": "MIC", "setting": "[1]; strain CH635 (HPKTCC B0562)", "result": 75, "unit": "µg/mL"}, {"measurement": "MIC", "setting": "[1]; strain CH674 (HPKTCC B0564)", "result": 75, "unit": "µg/mL"}, {"measurement": "MIC", "setting": "[1]; strain CH1056 (HPKTCC B0487)", "result": 75, "unit": "µg/mL"}, {"measurement": "MIC", "setting": "[1]; strain CJH7 (HPKTCC B0606)", "result": 75, "unit": "µg/mL"}, {"measurement": "MIC", "setting": "[1]; strain CJH8 (HPKTCC B0608)", "result": 75, "unit": "µg/mL"}, {"measurement": "MIC", "setting": "[1]; strain CJH9 (HPKTCC B0610)", "result": 75, "unit": "µg/mL"}, {"measurement": "MIC", "setting": "[1]; strain CJH10 (HPKTCC B0587)", "result": 75, "unit": "µg/mL"}, {"measurement": "MIC", "setting": "[1]; strain CJH13 (HPKTCC B0589)", "result": 75, "unit": "µg/mL"}, {"measurement": "MIC", "setting": "[1]; strain CJH31 (HPKTCC B0594)", "result": 75, "unit": "µg/mL"}, {"measurement": "MIC", "setting": "[1]; strain CJH33 (HPKTCC B0595)", "result": 75, "unit": "µg/mL"}, {"measurement": "MIC", "setting": "[1]; strain CJH43 (HPKTCC B0596)", "result": 75, "unit": "µg/mL"}, {"measurement": "MIC", "setting": "[1]; strain CJH50 (HPKTCC B0599)", "result": 75, "unit": "µg/mL"}, {"measurement": "MIC", "setting": "[1]; strain G88001 (HPKTCC B0722)", "result": 75, "unit": "µg/mL"}, {"measurement": "MIC", "setting": "[1]; strain G88007 (HPKTCC B0725)", "result": 75, "unit": "µg/mL"}, {"measurement": "MIC", "setting": "[1]; strain J99 (HPKTCC B0748)", "result": 75, "unit": "µg/mL"}, {"measurement": "MIC", "setting": "[1]; strain SS1-P-4′ (HPKTCC B3392)", "result": 75, "unit": "µg/mL"}, {"measurement": "pIC50", "setting": "[2]", "result": 7.85}]}
